target: IGF-1R (Homo sapiens (Human), UniProt P08069); assay: Example B-1: IGF-1R Assay (PC3 cells, IGF1 stimulation, AlphaLISA); type: cell-based; conditions: 200 ng/mL IGF1 stimulation, read-out: Biological Activity against IGF-1R IC50
How it was run: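 Readout is AlphaLISA signal from lysed PC3 cells, expressed as % inhibition versus vehicle and EC80 controls and banded by IC50. Before lysis, the cells were starved of serum for 2 h, exposed to 3× serially diluted compound for 2 h, and stimulated for 30 min with 200 ng/mL IGF1 (final).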

Chain of IGF-1R (P08069 31-1367): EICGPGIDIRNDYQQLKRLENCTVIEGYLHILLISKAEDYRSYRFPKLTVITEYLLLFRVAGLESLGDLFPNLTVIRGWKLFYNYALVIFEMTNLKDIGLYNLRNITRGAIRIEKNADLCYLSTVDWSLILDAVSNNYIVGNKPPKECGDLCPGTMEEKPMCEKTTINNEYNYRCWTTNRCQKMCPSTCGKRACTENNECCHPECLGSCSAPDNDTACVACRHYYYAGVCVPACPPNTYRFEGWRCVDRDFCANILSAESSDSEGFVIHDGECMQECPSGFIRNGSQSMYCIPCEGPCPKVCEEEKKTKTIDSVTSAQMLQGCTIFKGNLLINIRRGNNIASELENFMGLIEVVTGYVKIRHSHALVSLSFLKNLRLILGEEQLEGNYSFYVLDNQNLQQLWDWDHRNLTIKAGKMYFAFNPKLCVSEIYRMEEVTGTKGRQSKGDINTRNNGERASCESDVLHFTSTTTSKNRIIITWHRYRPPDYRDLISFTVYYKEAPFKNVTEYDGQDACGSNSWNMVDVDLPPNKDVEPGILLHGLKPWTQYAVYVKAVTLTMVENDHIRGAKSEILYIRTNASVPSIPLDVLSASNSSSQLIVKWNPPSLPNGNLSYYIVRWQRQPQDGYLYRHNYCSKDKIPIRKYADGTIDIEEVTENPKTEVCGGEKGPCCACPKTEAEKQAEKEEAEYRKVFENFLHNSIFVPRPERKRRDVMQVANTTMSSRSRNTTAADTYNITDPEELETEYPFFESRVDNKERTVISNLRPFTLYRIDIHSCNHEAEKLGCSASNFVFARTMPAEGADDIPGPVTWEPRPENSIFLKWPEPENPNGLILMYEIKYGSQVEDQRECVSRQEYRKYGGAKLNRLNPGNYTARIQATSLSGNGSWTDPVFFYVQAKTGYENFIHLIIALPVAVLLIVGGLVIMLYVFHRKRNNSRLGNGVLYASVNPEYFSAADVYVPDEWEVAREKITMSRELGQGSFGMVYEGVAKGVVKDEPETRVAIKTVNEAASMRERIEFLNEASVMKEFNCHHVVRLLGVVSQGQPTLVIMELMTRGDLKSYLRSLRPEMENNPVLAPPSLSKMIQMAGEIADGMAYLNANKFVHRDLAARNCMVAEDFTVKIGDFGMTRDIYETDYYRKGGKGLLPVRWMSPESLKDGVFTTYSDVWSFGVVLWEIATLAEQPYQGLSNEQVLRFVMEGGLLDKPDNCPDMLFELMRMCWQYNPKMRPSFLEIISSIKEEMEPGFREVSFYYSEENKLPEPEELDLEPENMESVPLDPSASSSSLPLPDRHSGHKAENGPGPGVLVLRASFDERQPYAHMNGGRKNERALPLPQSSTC

SMILES | IC50 [nM]
COc1cc(Nc2nccc(Nc3cnc4ccc(C)cc4c3)n2)ccc1O[C@H]1C[C@H](N(C)C)C1 [Compound 335, 2-{3-methoxy-4-[(1r,3r)-3-(dimethylamino)cyclobutoxy]phenylamino}-4-(6-methyl-3-quinolylamino)pyrimidine] | ≤ 500
COc1cc(Nc2nccc(Nc3cnc4cc(F)c(F)cc4c3)n2)cnc1N1CCNC(C(F)F)C1 (stereo not drawn) [Compound 482, 2-{6-[3-(difluoromethyl)-1-piperazinyl]-5-methoxy-3-pyridylamino}-4-(6,7-difluoro-3-quinolylamino)pyrimidine] | ≤ 500
COc1cc(Nc2nccc(Nc3cnc(O[C@H]4CCCC[C@H]4O)c(F)c3)n2)ccc1O[C@H]1C[C@@H](N(C)C)C1 [Compound 180, (1R,2S)-2-[3-fluoro-5-(2-{3-methoxy-4-[(1s,3R)-3-(dimethylamino)cyclobutoxy]phenylamino}-4-pyrimidinylamino)-2-pyridyloxy]cyclohexanol] | ≤ 500
COc1cc(Nc2nccc(Nc3cnc4c(c3)CCCCC4)n2)ccc1O[C@H]1C[C@@H](N(C)C)C1 [Compound 202, 4-{8-azabicyclo[5.4.0]undeca-1(7),8,10-trien-10-ylamino}-2-{3-methoxy-4-[(1s,3s)-3-(dimethylamino)cyclobutoxy]phenylamino}pyrimidine] | ≤ 500
COc1cc(Nc2nccc(Nc3cc4cc(F)c(F)cc4[nH]c3=O)n2)ccc1O[C@H]1C[C@@H](N(C)C)C1 [Compound 119, 6,7-difluoro-3-(2-{3-methoxy-4-[(1s,3s)-3-(dimethylamino)cyclobutoxy]phenyl-amino}-4-pyrimidinylamino)-1,2-dihydro-2-quinolinone] | ≤ 500
COc1nc(N2CCC(O)(C(F)(F)F)CC2)ccc1Nc1nccc(Nc2cc3cccc(F)c3[nH]c2=O)n1 [Compound 227, 8-fluoro-3-(2-{6-[4-hydroxy-4-(trifluoromethyl)-1-piperidyl]-2-methoxy-3-pyridylamino}-4-pyrimidinylamino)-1,2-dihydro-2-quinolinone] | ≤ 500
CN(C)[C@H]1C[C@H](Oc2ccc(Nc3nccc(Nc4cc5ccccc5[nH]c4=O)n3)cc2)C1 [Compound 248, 3-(2-{p-[(1r,3r)-3-(dimethylamino)cyclobutoxy]phenylamino}-4-pyrimidinyl-amino)-2(1H)-quinolinone] | ≤ 500
COc1cc(Nc2nccc(Nc3cnc4cc(F)c(F)cc4c3)n2)cnc1OC1CCNCC1(F)F (stereo not drawn) [Compound 263, 2-[6-(3,3-difluoro-4-piperidyloxy)-5-methoxy-3-pyridylamino]-4-(6,7-difluoro-3-quinolylamino)pyrimidine] | ≤ 500
CN(C)[C@H]1C[C@H](Oc2ccc(Nc3nccc(Nc4cnc5c(c4)OCCO5)n3)cc2)C1 [Compound 317, 4-(2,3-dihydro-1,4-dioxa-5-aza-7-naphthylamino)-2-{p-[(1r,3r)-3-(dimethylamino)cyclobutoxy]phenylamino}pyrimidine] | ≤ 500
COc1cc(Nc2nccc(Nc3cnc4c(F)cc(F)cc4c3)n2)ccc1O[C@H]1C[C@@H](N(C)C)C1 [Compound 113, 4-(6,8-difluoro-3-quinolylamino)-2-{3-methoxy-4-[(1s,3s)-3-(dimethylamino)cyclobutoxy]phenylamino}pyrimidine] | ≤ 500
COc1cc(Nc2nccc(Nc3cnc4cc(NC(C)=O)ccc4c3)n2)ccc1O[C@H]1C[C@@H](N(C)C)C1 [Compound 9, N-[3-(2-{3-methoxy-4-[(1s,3s)-3-(dimethylamino)cyclobutoxy]phenylamino}-4-pyrimidinylamino)-7-quinolyl]acetamide] | ≤ 500

Other lines, results leading:

IC50 [nM] | SMILES
≤ 500 | COc1cc(Nc2nccc(Nc3cnc4c(C(F)(F)F)cccc4c3)n2)ccc1OCCCN1CCCCC1 [Compound 5, 2-[3-methoxy-4-(3-piperidinopropoxy)phenylamino]-4-[8-(trifluoromethyl)-3-quinolylamino]pyrimidine]
≤ 500 | COc1cc(Nc2nccc(Nc3cnc4cccc(Cl)c4c3)n2)ccc1OCCCN1CCCCC1 [Compound 422, 4-(5-chloro-3-quinolylamino)-2-[3-methoxy-4-(3-piperidinopropoxy)phenylamino]pyrimidine]
≤ 500 | COc1cc(Nc2nccc(Nc3cnc4c(c3)CC3(CC4)OCCO3)n2)ccc1OCCCN1CCCCC1 [Compound 303, 4-(7′,8′-dihydro-5′H-spiro[1,3-dioxolane-2,6′-quinolin]-3′-ylamino)-2-[3-methoxy-4-(3-piperidinopropoxy)phenylamino] pyrimidine]
≤ 500 | COc1cc(Nc2nccc(Nc3cc4cccc(F)c4[nH]c3=O)n2)ccc1N1CCN(C)C(C)(C)C1 [Compound 175, 8-fluoro-3-((2-((3-methoxy-4-(3,3,4-trimethylpiperazin-1-yl)phenyl)amino)pyrimidin-4-yl)amino)quinolin-2(1H)-one]
≤ 500 | COc1cc(Nc2nccc(Nc3cnc4cc(F)c(F)cc4c3)n2)cnc1N1CCN(C)C(C)(C)C1 [Compound 484, 4-(6,7-difluoro-3-quinolylamino)-2-[6-(3,3-dimethyl-4-methyl-1-piperazinyl)-5-methoxy-3-pyridylamino]pyrimidine]
≤ 500 | COc1cc(Nc2nccc(Nc3cnc4cc(F)c(F)cc4c3)n2)cnc1N1CCNCC1 [Compound 478, 4-(6,7-difluoro-3-quinolylamino)-2-[5-methoxy-6-(1-piperazinyl)-3-pyridylamino]pyrimidine]
≤ 500 | COc1cc(Nc2nccc(Nc3ccc4nc(C)ccc4c3)n2)ccc1OCCCN1CCCCC1 [Compound 456, 2-[3-methoxy-4-(3-piperidinopropoxy)phenylamino]-4-(2-methyl-6-quinolylamino) pyrimidine]
≤ 500 | COc1cc(N2CCN(C)CC2)ncc1Nc1nccc(Nc2cnc3cc(F)c(F)cc3c2)n1 [Compound 473, 4-(6,7-difluoro-3-quinolylamino)-2-[4-methoxy-6-(4-methy1-1-piperazinyl)-3-pyridylamino]pyrimidine]
≤ 500 | O=S1(=O)CCN(CCCOc2ccc(Nc3nccc(Nc4cnc5ccc(Br)cc5c4)n3)cc2)CC1 [Compound 206, 4-(3-{p-[4-(6-bromo-3-quinolylamino)-2-pyrimidinylamino]phenoxy}propyl)-1λ^6,4-thiazinane-1,1-dione]
≤ 500 | COc1cc(Nc2nccc(Nc3cc(Cl)c4ncccc4c3)n2)ccc1OCCCN1CCCCC1 [Compound 457, 4-(8-chloro-6-quinolylamino)-2-[3-methoxy-4-(3-piperidinopropoxy)phenylamino] pyrimidine]
≤ 500 | c1cc(Nc2cnc3c(c2)C2CCC3CC2)nc(Nc2ccc(OCCCN3CCOCC3)cc2)n1 [Compound 373, 4-(3-azatricyclo[6.2.2.0^2,7]dodeca-2,4,6-trien-5-ylamino)-2-[p-(3-morpholinopropoxy)phenylamino] pyrimidine]
500 to 2000 | COc1cc(Nc2nccc(Nc3ccc4cccnc4c3)n2)ccc1OCCCN1CCCCC1 [Compound 433, 2-[3-methoxy-4-(3-piperidinopropoxy)phenylamino]-4-(7-quinolylamino) pyrimidine]
≤ 500 | COc1cc(Nc2nccc(Nc3cnc4c(C)cccc4c3)n2)ccc1OCCCN1CCCCC1 [Compound 99, 2-[3-methoxy-4-(3-piperidinopropoxy)phenylamino]-4-(8-methyl-3-quinolylamino)pyrimidine]

— patent publication US20250171431A1, “HETEROCYCLIC INHIBITORS OF IGF-1R FOR TREATMENT OF DISEASE” (HORIZON THERAPEUTICS IRELAND DAC, priority 2023, published 2025)
